Results on 12 compounds are retold here after US7045532B2 (Millennium Pharmaceuticals, Inc., priority 1999, dated 2006).

The target in experiment [1] is T1, ACE-2 (Homo sapiens, UniProt Q9BYF1).
T1 construct: a stop codon inserted after the serine immediately preceding the transmembrane domain; made in house; host or cells: CHO K1 cells (transient transfection, purified from conditioned medium)
The experiment is described as follows: ACE-2 Competitive Substrate Assay (ACS Assay). Type of experiment: biochemical. The settings on record: Ki class; compounds tested in 5% DMSO, 12 concentrations; read-out: Human ACE-2 Activity.

Experiment [2] has as its target ACE-2 (Rattus norvegicus, UniProt Q5EGZ1). The experiment is described as follows: ACE-2 Competitive Substrate Assay, rat ACE-2. The class given is biochemical. Conditions: Ki class; compounds tested in 5% DMSO, 12 concentrations.
Procedure: ACE-2 enzymatic activity was assayed in microtitre plates by the following procedure. The ACE-2 assay buffer used contained 50 mM MES (Boehringer-Mannheim), 300 mM NaCl (Sigma) and 0.01% Brij-35 (Pierce Chemical Co.) at pH 6.5.
Reactions were mixed and incubated at 25° C.
The activity of the test compounds was investigated using the procedure outlined above. The compounds were tested in 5% DMSO. Enzyme activity was measured at 12 compound concentrations.
The target of another experiment is T2, ACE (Sigma, A2580) (Sus scrofa, UniProt F1RRW5).
T2 construct: ACE from porcine kidney; purchased Sigma A2580; host or cells: porcine kidney
T2 sequence (F1RRW5 34-1309): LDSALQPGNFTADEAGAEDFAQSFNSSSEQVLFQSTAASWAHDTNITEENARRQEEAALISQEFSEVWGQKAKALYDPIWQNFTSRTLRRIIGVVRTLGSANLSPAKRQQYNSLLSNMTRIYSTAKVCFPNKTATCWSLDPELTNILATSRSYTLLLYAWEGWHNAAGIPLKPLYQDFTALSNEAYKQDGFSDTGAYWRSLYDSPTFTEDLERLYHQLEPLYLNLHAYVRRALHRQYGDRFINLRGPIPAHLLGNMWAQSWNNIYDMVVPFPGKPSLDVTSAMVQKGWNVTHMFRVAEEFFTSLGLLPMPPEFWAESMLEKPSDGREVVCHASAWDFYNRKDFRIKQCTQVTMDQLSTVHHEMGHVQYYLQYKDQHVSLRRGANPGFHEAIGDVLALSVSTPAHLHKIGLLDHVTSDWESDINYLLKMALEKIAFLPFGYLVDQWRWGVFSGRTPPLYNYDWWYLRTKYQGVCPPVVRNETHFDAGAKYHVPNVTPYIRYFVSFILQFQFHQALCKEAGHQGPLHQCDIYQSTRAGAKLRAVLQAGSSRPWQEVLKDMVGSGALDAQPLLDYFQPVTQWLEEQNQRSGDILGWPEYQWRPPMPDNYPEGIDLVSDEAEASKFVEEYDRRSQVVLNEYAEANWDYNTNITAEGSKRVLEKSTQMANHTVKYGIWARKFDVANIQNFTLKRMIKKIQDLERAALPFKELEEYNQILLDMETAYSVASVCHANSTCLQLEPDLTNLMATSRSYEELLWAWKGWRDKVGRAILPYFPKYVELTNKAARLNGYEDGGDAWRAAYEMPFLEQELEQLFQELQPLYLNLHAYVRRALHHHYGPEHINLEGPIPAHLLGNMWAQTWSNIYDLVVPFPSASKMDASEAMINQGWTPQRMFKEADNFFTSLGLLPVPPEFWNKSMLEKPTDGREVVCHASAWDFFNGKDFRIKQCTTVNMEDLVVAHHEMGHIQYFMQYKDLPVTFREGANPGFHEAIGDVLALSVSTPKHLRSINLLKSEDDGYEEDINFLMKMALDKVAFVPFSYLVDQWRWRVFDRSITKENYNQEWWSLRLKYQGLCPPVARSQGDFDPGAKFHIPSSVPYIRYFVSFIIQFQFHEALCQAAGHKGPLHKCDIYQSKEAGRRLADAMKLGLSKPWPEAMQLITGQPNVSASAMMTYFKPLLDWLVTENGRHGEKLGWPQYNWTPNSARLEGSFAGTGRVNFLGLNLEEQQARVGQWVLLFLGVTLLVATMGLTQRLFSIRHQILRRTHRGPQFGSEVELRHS
The experiment in a line: ACE enzymatic activity assay. Type of experiment: biochemical, porcine. The settings on record: Ki class; compounds tested in 5% DMSO, 12 concentrations. The essentials: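 ACE (1 nM final) in 50 mM HEPES, 300 mM NaCl, 0.01% Brij-35, pH 7.5, with compound in 5% DMSO at 12 concentrations, 25 °C. Substrate cleavage run ~30 min, stopped with EDTA; fluorescence read at excitation 320 nm, emission 405 nm.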

Another experiment deals with T3, Carboxypeptidase A (Bos taurus, UniProt P00730).
T3 sequence (P00730 111-419): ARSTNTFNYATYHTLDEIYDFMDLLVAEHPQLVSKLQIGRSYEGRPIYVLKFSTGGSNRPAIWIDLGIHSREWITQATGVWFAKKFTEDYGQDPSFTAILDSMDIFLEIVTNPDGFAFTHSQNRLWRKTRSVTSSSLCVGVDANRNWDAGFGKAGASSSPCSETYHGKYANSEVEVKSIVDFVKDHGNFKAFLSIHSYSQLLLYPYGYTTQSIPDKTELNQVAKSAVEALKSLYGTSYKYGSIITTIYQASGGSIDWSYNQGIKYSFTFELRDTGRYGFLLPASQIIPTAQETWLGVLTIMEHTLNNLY
The experiment in a line: Carboxypeptidase A activity assay. The class given is biochemical. Conditions: Ki class; compounds tested in 5% DMSO, 12 concentrations. In outline:
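Bovine carboxypeptidase A activity followed at 328 nm in 5% DMSO, reaction stopped with EDTA. Activity measured at 12 compound concentrations. Ki derived from apparent Ki as Ki=Kiapp/(1+[S]/Km).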

Chain of ACE-2 (Rattus norvegicus, UniProt Q5EGZ1) (Q5EGZ1 18-805): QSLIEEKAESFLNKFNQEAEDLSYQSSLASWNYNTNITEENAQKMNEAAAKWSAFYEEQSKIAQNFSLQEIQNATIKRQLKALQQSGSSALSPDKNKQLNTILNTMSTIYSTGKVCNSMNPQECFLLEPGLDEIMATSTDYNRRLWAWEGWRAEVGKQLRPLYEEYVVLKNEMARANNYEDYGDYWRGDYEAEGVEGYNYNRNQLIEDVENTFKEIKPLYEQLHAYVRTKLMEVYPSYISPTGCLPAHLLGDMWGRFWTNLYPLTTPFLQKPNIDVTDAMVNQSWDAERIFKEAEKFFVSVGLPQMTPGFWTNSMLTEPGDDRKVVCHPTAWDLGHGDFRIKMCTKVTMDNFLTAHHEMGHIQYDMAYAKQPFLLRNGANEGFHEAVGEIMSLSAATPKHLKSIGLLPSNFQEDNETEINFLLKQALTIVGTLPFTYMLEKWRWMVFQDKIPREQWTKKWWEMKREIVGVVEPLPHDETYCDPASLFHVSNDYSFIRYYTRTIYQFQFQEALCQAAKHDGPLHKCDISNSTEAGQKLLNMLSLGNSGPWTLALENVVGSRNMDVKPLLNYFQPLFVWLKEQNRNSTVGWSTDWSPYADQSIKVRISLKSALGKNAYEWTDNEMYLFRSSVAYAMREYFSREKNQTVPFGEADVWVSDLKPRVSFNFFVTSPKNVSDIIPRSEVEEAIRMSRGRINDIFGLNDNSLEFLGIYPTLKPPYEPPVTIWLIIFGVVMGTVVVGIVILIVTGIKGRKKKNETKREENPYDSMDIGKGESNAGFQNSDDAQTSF
T1 sequence (Q9BYF1 18-740 limits assumed): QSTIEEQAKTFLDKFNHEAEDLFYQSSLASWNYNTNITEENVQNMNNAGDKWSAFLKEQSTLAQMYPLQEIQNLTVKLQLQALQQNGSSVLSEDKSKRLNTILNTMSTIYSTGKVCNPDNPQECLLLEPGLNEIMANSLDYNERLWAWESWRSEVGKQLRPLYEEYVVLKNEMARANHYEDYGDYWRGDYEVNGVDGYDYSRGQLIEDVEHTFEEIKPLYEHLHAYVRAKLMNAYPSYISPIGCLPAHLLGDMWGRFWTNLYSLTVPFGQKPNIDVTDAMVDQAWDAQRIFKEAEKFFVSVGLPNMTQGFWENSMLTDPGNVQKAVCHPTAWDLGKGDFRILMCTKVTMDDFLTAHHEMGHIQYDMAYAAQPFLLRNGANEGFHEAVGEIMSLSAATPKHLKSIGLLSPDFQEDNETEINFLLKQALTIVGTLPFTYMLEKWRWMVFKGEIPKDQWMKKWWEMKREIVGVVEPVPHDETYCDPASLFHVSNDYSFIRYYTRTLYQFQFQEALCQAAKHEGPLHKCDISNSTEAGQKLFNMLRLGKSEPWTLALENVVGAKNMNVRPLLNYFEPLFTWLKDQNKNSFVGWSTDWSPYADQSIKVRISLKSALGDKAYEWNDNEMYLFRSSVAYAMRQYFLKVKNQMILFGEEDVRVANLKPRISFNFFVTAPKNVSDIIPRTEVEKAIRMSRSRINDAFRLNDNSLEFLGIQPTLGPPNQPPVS

In the case of `CCCCCC[C@H](N[C@H](Cc1c[nH]cn1)C(=O)O)C(=O)O` [CR, 2-[1-Carboxy-2-(1H-imidazol-4-yl)-ethylamino)octanoic acid], the Ki on ACE-2 [1] was more than 0.5 µM; at ACE-2 [2], more than 0.5 µM; at ACE (Sigma, A2580), more than 50 µM; at Carboxypeptidase A, more than 50 µM.
Regarding `CC(C)CC(N[C@H](Cc1cscn1)C(=O)O)C(=O)O` (stereo partly drawn) [CV, 2-(1-Carboxy-2-thiazol-4-yl-ethylamino)-4-methyl-pentanoic acid], the Ki was more than 0.5 µM at ACE-2 [1]; more than 0.5 µM at ACE-2 [2]; more than 50 µM at ACE (Sigma, A2580); more than 50 µM at Carboxypeptidase A.
In the case of `CC(C)(C)C[C@H](N[C@H](CCc1ccccc1)C(=O)O)C(=O)O` [DD, 2-(1-Carboxy-3-phenyl-propylamino)-4,4-dimethylpentanoic acid], the Ki at ACE-2 [1] was more than 0.5 µM; on ACE-2 [2] it was more than 0.5 µM; on ACE (Sigma, A2580), more than 50 µM; on Carboxypeptidase A it was more than 50 µM.
With `O=C(O)[C@H](CC1CC1)N[C@H](CCc1ccccc1)C(=O)O` [DE, 2-(1-Carboxy-2-cyclopropyl-ethylamino)-4-phenyl-butync acid], the Ki at ACE-2 [1] was more than 0.5 µM; on ACE-2 [2], more than 0.5 µM; on ACE (Sigma, A2580) it was more than 50 µM; at Carboxypeptidase A, more than 50 µM.
For the compound `COC(=O)[C@H](CC(C)C)NCC(=O)c1ccc(-c2ccccc2)cc1` [DH, 2-(2-Biphenyl-4-yl-2-oxo-ethylamino)-4-methyl-pentanoic acid methylester], the Ki at ACE-2 [1] is more than 0.5 µM; on ACE-2 [2] it was more than 0.5 µM; at ACE (Sigma, A2580), more than 50 µM; at Carboxypeptidase A, more than 50 µM.
As to `COC(=O)[C@H](CC(C)C)NCC(=O)[C@H](Cc1ccccc1)NC(=O)OCc1ccccc1` [DI, 2-(3-Benzyloxycarbonylamino-2-oxo-4-phenyl-butylamino)-4-methyl-pentanoic acid methylester], the Ki at ACE-2 [1] was more than 0.5 µM; on ACE-2 [2], more than 0.5 µM; at ACE (Sigma, A2580), more than 50 µM; at Carboxypeptidase A it was 10 to 50 µM.
Regarding `O=C(O)C(CCc1ccccc1)N[C@@H](Cc1c[nH]cn1)C(=O)O` (stereo partly drawn) [DP, 2-[1-Carboxy-2-(1H-imidazol-4-yl)-ethylamino]4-phenyl-butync acid], the Ki at ACE-2 [1] is more than 0.5 µM; at ACE-2 [2], 0.1 to 0.5 µM; at ACE (Sigma, A2580), 10 to 50 µM; at Carboxypeptidase A, more than 50 µM.
Regarding `CC(C)CC(CS)C(=O)O` (stereo not drawn) [DQ, 2-Mercaptomethyl-4-methyl-pentanoic acid], the Ki at ACE-2 [1] was more than 0.5 µM; at ACE-2 [2], 0.1 to 0.5 µM; on ACE (Sigma, A2580) it was more than 50 µM; at Carboxypeptidase A, more than 50 µM.
As for `O=C(O)[C@H](CC#Cc1ccccc1)N[C@@H](CCc1ccccc1)C(=O)O` [DS, 2-(1-Carboxy-3-phenyl-propylamino)-5-phenyl-pent-4-ynoic acid], the Ki at ACE-2 [1] is more than 0.5 µM; on ACE-2 [2] it was 0.1 to 0.5 µM; on ACE (Sigma, A2580), more than 50 µM; on Carboxypeptidase A, 10 to 50 µM.
As for `CC(C)CC(N[C@@H](Cc1cncn1COCc1ccccc1)C(=O)O)C(=O)O` (stereo partly drawn) [DX, 2-[2-(3-Benzyloxymethyl-3H-imidazol-4-yl)-1-carboxy-ethylamino]-4-methyl-pentanoic acid], the Ki at ACE-2 [1] was 0.1 to 0.5 µM; on ACE-2 [2], 0.1 to 0.5 µM; at ACE (Sigma, A2580), more than 50 µM; on Carboxypeptidase A, more than 50 µM.
On to `CC(C)C[C@H](N[C@H](CCc1ccccc1)C(=O)O)C(=O)O` [E, 2-(1-Carboxy-3-phenyl-propylamino)-4-methyl-pentanoic acid], for which the Ki is more than 0.5 µM at ACE-2 [1]; more than 0.5 µM at ACE-2 [2]; more than 50 µM on ACE (Sigma, A2580); more than 50 µM on Carboxypeptidase A.
As for `O=C(O)[C@H](CC#Cc1ccccn1)N[C@@H](CCc1ccccc1)C(=O)O` [EA, 2-(1-Carboxy-3-phenyl-propylamino)-5-pyridin-2-yl-pent-4-ynoic acid], the Ki on ACE-2 [1] is more than 0.5 µM; on ACE-2 [2], 0.1 to 0.5 µM; at ACE (Sigma, A2580), more than 50 µM; at Carboxypeptidase A, less than 10 µM.
